From patent US20130157954A1, “METHODS FOR TREATMENT OR PROPHYLAXIS OF KIDNEY OR LIVER DYSFUNCTION” (NPS PHARMACEUTICALS, INC., priority 2010, published 2013)

Test: Example 1: liver biomarkers (total bilirubin, ALT, AST, ALP) in short bowel syndrome patients, every four weeks for 24 weeks; also sorted by >5% change from baseline
Format: in vivo, Human
Parameters: AST (SGOT) Change from Baseline Median / ALT (SGPT) Median / TOTAL BILIRUBIN Median / TOTAL BILIRUBIN Change from Baseline Median / ALT (SGPT) Change from Baseline Median / AST (SGOT) Median: unit not given here
Settings: 0.05 mg/kg/day
Experimental: Human patients with short bowel syndrome were divided into three groups: a control group (16 total individuals) to receive placebo, an experimental group (35 total individuals) to receive teduglutide at 0.05 mg/kg/day throughout the study, and an experimental group (32 total individuals) to receive teduglutide at 0.1 mg/kg/day throughout the study. Patients were treated by subcutaneous injection of placebo or the appropriate dose of teduglutide. As individuals with short bowel syndrome are likely to experience associated liver and kidney disease, known biomarkers of liver and kidney function were monitored every four weeks, for 24 weeks. The liver biomarkers tested included total bilirubin, ALT and AST and ALP. The kidney biomarkers tested included urea nitrogen, creatinine and GFR. Before administration of placebo or teduglutide, diagnostic biomarker levels were tested to establish a baseline for each individual.
To visualize the effect of GLP-2 on the levels of the diagnostic biomarkers, the average change from baseline was calculated for the placebo and teduglutide treated groups for each visit after a baseline was established. The average change from baseline of each group is depicted in FIGS. 1-7. The numerical figures for each diagnostic biomarker at each time point are depicted in Table 1.
The efficacy of teduglutide in treating liver dysfunction was further tested by sorting the data into two groups: individuals with abnormal baseline values of liver diagnostic biomarkers; and individuals with normal baseline values of liver diagnostic biomarkers. The mean diagnostic biomarker change from baseline for these two groups is shown for ALT (FIGS. 5 and 6) and AST (FIGS. 7 and 8). […] These changes were significant when compared to baseline levels for the group, and when compared to placebo (see FIGS. 5 and 7).
The raw data for this sorting is reproduced in Table 2 below.

With `CC[C@H](C)[C@H](NC(=O)[C@H](Cc1ccccc1)NC(=O)[C@H](CC(=O)O)NC(=O)[C@H](CCCNC(=N)N)NC(=O)[C@H](C)NC(=O)[C@H](C)NC(=O)[C@H](CC(C)C)NC(=O)[C@H](CC(N)=O)NC(=O)[C@H](CC(=O)O)NC(=O)[C@H](CC(C)C)NC(=O)[C@@H](NC(=O)[C@@H](NC(=O)[C@H](CC(N)=O)NC(=O)[C@H](CCSC)NC(=O)[C@H](CCC(=O)O)NC(=O)[C@H](CC(=O)O)NC(=O)[C@H](CO)NC(=O)[C@H](Cc1ccccc1)NC(=O)[C@H](CO)NC(=O)CNC(=O)[C@H](CC(=O)O)NC(=O)CNC(=O)[C@@H](N)Cc1c[nH]cn1)[C@@H](C)O)[C@@H](C)CC)C(=O)N[C@@H](CC(N)=O)C(=O)N[C@@H](Cc1c[nH]c2ccccc12)C(=O)N[C@@H](CC(C)C)C(=O)N[C@H](C(=O)N[C@@H](CCC(N)=O)C(=O)N[C@H](C(=O)N[C@@H](CCCCN)C(=O)N[C@H](C(=O)N[C@H](C(=O)N[C@@H](CC(=O)O)C(=O)O)[C@@H](C)O)[C@@H](C)CC)[C@@H](C)O)[C@@H](C)CC` [teduglutide] the “ALKALINE PHOSPHATASE Change from Baseline Median” value (DW4) was −16.0, the “ALT (SGPT) Change from Baseline Median” value (DW4) was −5.0 and the “ALT (SGPT) Median” value (DW4) was 27.0. For the same compound, the “AST (SGOT) Change from Baseline Median” value (DW4) was −4.0, the “AST (SGOT) Median” value (DW4) was 27.0 and the “TOTAL BILIRUBIN Change from Baseline Median” value (DW4) was 0.0. The “TOTAL BILIRUBIN Median” value (DW4) was 7.0, the “ALKALINE PHOSPHATASE Change from Baseline Median” value (DW8) was −20.0 and the “ALT (SGPT) Change from Baseline Median” value (DW8) was −4.0. The “AST (SGOT) Change from Baseline Median” value (DW8) was −3.0, the “AST (SGOT) Median” value (DW8) was 28.0 and the “TOTAL BILIRUBIN Change from Baseline Median” value (DW8) was −1.0. The “TOTAL BILIRUBIN Median” value (DW8) was 8.0, the “ALKALINE PHOSPHATASE Change from Baseline Median” value (DW12) was −24.0 and the “ALT (SGPT) Change from Baseline Median” value (DW12) was −10.0. The “ALT (SGPT) Median” value (DW12) was 26.0, the “AST (SGOT) Change from Baseline Median” value (DW12) was −8.0 and the “TOTAL BILIRUBIN Change from Baseline Median” value (DW12) was −1.0. The “TOTAL BILIRUBIN Median” value (DW12) was 7.0, the “ALT (SGPT) Change from Baseline Median” value (DW16) was −2.5 and the “ALT (SGPT) Median” value (DW16) was 28.0. The “AST (SGOT) Change from Baseline Median” value (DW16) was −1.5, the “AST (SGOT) Median” value (DW16) was 25.0 and the “TOTAL BILIRUBIN Change from Baseline Median” value (DW16) was −1.0. The “TOTAL BILIRUBIN Median” value (DW16) was 7.0, the “ALKALINE PHOSPHATASE Change from Baseline Median” value (DW20) was −25.0 and the “ALT (SGPT) Change from Baseline Median” value (DW20) was −5.0. For the same compound, the “ALT (SGPT) Median” value (DW20) was 26.0, the “AST (SGOT) Change from Baseline Median” value (DW20) was −4.0 and the “AST (SGOT) Median” value (DW20) was 25.0. For the same compound, the “TOTAL BILIRUBIN Change from Baseline Median” value (DW20) was 0.0, the “TOTAL BILIRUBIN Median” value (DW20) was 9.0 and the “ALKALINE PHOSPHATASE Change from Baseline Median” value (DW 24) was −29.0. The “ALT (SGPT) Change from Baseline Median” value (DW 24) was −5.0, the “ALT (SGPT) Median” value (DW 24) was 20.0 and the “AST (SGOT) Change from Baseline Median” value (DW 24) was −4.5. The “AST (SGOT) Median” value (DW 24) was 25.0, the “TOTAL BILIRUBIN Change from Baseline Median” value (DW 24) was 0.0 and the “TOTAL BILIRUBIN Median” value (DW 24) was 8.0. The “ALKALINE PHOSPHATASE change from baseline <−5%, number of patients” value (week 4) was 21, the “ALKALINE PHOSPHATASE change from baseline <−5%, percent of patients” value (week 4) was “(60.0%)” and the “ALKALINE PHOSPHATASE change from baseline >5%, number of patients” value (week 4) was 3. For the same compound, the “ALKALINE PHOSPHATASE change from baseline >5%, percent of patients” value (week 4) was “(8.6%)”, the “ALKALINE PHOSPHATASE change from baseline −5% <= and <=5%, number of patients” value (week 4) was 6 and the “ALKALINE PHOSPHATASE change from baseline −5% <= and <=5%, percent of patients” value (week 4) was “(17.1%)”. For the same compound, the “ALT (SGPT) change from baseline <−5%, number of patients” value (week 4) was 22, the “ALT (SGPT) change from baseline <−5%, percent of patients” value (week 4) was “(62.9%)” and the “ALT (SGPT) change from baseline >5%, number of patients” value (week 4) was 8. The “ALT (SGPT) change from baseline >5%, percent of patients” value (week 4) was “(22.9%)”, the “ALT (SGPT) change from baseline −5% <= and <=5%, number of patients” value (week 4) was 0 and the “ALT (SGPT) change from baseline −5% <= and <=5%, percent of patients” value (week 4) was “(0.0%)”. The “AST (SGOT) change from baseline <−5%, number of patients” value (week 4) was 21, the “AST (SGOT) change from baseline <−5%, percent of patients” value (week 4) was “(60.0%)” and the “AST (SGOT) change from baseline >5%, number of patients” value (week 4) was 5. The “AST (SGOT) change from baseline >5%, percent of patients” value (week 4) was “(14.3%)”, the “AST (SGOT) change from baseline −5% <= and <=5%, number of patients” value (week 4) was 2 and the “AST (SGOT) change from baseline −5% <= and <=5%, percent of patients” value (week 4) was “(5.7%)”. The “TOTAL BILIRUBIN change from baseline <−5%, number of patients” value (week 4) was 12, the “TOTAL BILIRUBIN change from baseline <−5%, percent of patients” value (week 4) was “(34.3%)” and the “TOTAL BILIRUBIN change from baseline >5%, number of patients” value (week 4) was 8. For the same compound, the “TOTAL BILIRUBIN change from baseline >5%, percent of patients” value (week 4) was “(22.9%)”, the “TOTAL BILIRUBIN change from baseline −5% <= and <=5%, number of patients” value (week 4) was 6 and the “TOTAL BILIRUBIN change from baseline −5% <= and <=5%, percent of patients” value (week 4) was “(17.1%)”. For the same compound, the “ALKALINE PHOSPHATASE change from baseline <−5%, number of patients” value (week 8) was 21, the “ALKALINE PHOSPHATASE change from baseline <−5%, percent of patients” value (week 8) was “(60.0%)” and the “ALKALINE PHOSPHATASE change from baseline >5%, number of patients” value (week 8) was 6. The “ALKALINE PHOSPHATASE change from baseline >5%, percent of patients” value (week 8) was “(17.1%)”, the “ALKALINE PHOSPHATASE change from baseline −5% <= and <=5%, number of patients” value (week 8) was 2 and the “ALKALINE PHOSPHATASE change from baseline −5% <= and <=5%, percent of patients” value (week 8) was “(5.7%)”. For the same compound, the “ALT (SGPT) change from baseline <−5%, number of patients” value (week 8) was 16, the “ALT (SGPT) change from baseline <−5%, percent of patients” value (week 8) was “(45.7%)” and the “ALT (SGPT) change from baseline >5%, number of patients” value (week 8) was 9. For the same compound, the “ALT (SGPT) change from baseline >5%, percent of patients” value (week 8) was “(25.7%)”, the “ALT (SGPT) change from baseline −5% <= and <=5%, number of patients” value (week 8) was 4 and the “ALT (SGPT) change from baseline −5% <= and <=5%, percent of patients” value (week 8) was “(11.4%)”. The “AST (SGOT) change from baseline <−5%, number of patients” value (week 8) was 16, the “AST (SGOT) change from baseline <−5%, percent of patients” value (week 8) was “(45.7%)” and the “AST (SGOT) change from baseline >5%, number of patients” value (week 8) was 9. The “AST (SGOT) change from baseline >5%, percent of patients” value (week 8) was “(25.7%)”, the “AST (SGOT) change from baseline −5% <= and <=5%, number of patients” value (week 8) was 4 and the “AST (SGOT) change from baseline −5% <= and <=5%, percent of patients” value (week 8) was “(11.4%)”. For the same compound, the “TOTAL BILIRUBIN change from baseline <−5%, number of patients” value (week 8) was 13, the “TOTAL BILIRUBIN change from baseline <−5%, percent of patients” value (week 8) was “(37.1%)” and the “TOTAL BILIRUBIN change from baseline >5%, number of patients” value (week 8) was 8. For the same compound, the “TOTAL BILIRUBIN change from baseline >5%, percent of patients” value (week 8) was “(22.9%)”, the “TOTAL BILIRUBIN change from baseline −5% <= and <=5%, number of patients” value (week 8) was 4 and the “TOTAL BILIRUBIN change from baseline −5% <= and <=5%, percent of patients” value (week 8) was “(11.4%)”. The “ALKALINE PHOSPHATASE change from baseline <−5%, number of patients” value (week 12) was 23, the “ALKALINE PHOSPHATASE change from baseline <−5%, percent of patients” value (week 12) was “(65.7%)” and the “ALKALINE PHOSPHATASE change from baseline >5%, number of patients” value (week 12) was 2. The “ALKALINE PHOSPHATASE change from baseline >5%, percent of patients” value (week 12) was “(5.7%)” and the “ALKALINE PHOSPHATASE change from baseline −5% <= and <=5%, number of patients” value (week 12) was 2.
